The record followed here is patent publication US11236086B2, “Substituted pyrrolopyridines as inhibitors of activin receptor-like kinase” (BLUEPRINT MEDICINES CORPORATION, priority 2017, dated 2022).

SMILES strings stand for the structures.

Assay [1] concerns the target T1, ALK2R206H (mutant ALK2, N-terminally tagged with GST) (Homo sapiens, UniProt Q04771, R206H).
T1 construct: purchased Carna Bioscience or ThermoFisher 09-148 or PV6232
T1 sequence (Q04771 21-509 R206H): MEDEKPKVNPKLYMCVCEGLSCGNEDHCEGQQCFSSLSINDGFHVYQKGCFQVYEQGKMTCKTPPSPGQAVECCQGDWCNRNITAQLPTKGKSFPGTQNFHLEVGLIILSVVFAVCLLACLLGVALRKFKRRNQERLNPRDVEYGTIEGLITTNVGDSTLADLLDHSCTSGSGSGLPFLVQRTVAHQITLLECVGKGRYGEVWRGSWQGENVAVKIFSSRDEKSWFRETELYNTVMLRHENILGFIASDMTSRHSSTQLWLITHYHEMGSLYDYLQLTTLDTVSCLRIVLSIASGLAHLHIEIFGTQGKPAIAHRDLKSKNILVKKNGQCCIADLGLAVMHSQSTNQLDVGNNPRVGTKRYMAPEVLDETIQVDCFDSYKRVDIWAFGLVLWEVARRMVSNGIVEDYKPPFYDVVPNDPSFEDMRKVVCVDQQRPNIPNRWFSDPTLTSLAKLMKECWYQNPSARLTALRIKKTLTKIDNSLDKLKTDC
In words: ALK binding assay (LANTHASCREEN TR-FRET competitive binding, displacement of Kinase Tracer 178). The conditions noted are these: read-out: Binding Assay (IC50 class). Put shortly: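 GST-tagged ALK2 R206H (2-5 nM) mixed with Eu-anti-GST antibody (4-10 nM), Kinase Tracer 178 (50 nM, near its Kd) and compound titration (1% DMSO) in Kinase Buffer A, 30 min at room temperature. Tracer displacement read as TR-FRET ratio, normalized to controls; IC50 from 4-parameter fit.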

A further assay deals with T2, human ALK2 R206H (Homo sapiens, UniProt Q04771, R206H).
T2 construct: expressed in transfected cells; host or cells: HEK293 (ATCC CRL1573), lentivirus transduction, blasticidin selection
T2 sequence (Q04771 21-509 R206H): T1 sequence (Q04771 21-509 R206H)
In words: Cell-based ALK2-R206H cell activity assay (Smad1-Ser463/Ser465 phosphorylation by AlphaLISA in HEK293-ALK2-R206H cells). The conditions noted are these: phospho-Smad1 AlphaLISA, read-out: Cell Line (Cell Assay, IC50 class). A digest of the protocol: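 HEK293 stable line expressing human ALK2 R206H with C-terminal FLAG, plated overnight in serum-free medium. Cells were treated 2-3 h with compound over 10 3-fold doses, top 10 μM or 1 μM, in duplicate. Phospho-Smad1 Ser463/465 in lysate was read by AlphaLISA; IC50 was normalised to DMSO (0%) and 1 μM LDN193189 (100%).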

Turning to `O=C(OC1COC1)N1CCN(c2ccnc3[nH]c(-c4ccc(C5(O)CCCC5)cc4)cc23)CC1` [Compound 427], the IC50 in assay [1] is no more than 10 nM; on human ALK2 R206H it was no more than 100 nM.
For `CC(C)N1CCC(c2ccc(-c3cc4c(N5CCN(C(=O)OC6COC6)CC5)ccnc4[nH]3)nc2)CC1` [Compound 469] the same measures were no more than 10 nM and no more than 100 nM.
With `Cc1cnc(-c2cc3c(N4CCN(C(=O)OC5COC5)CC4)ccnc3[nH]2)s1` [Compound 174], the values for the IC50 (in assay [1]; at human ALK2 R206H) were no more than 10 nM and 100 to 500 nM, respectively.
The matching figures for `Cc1nc(-c2cc3c(N4CCN(C(=O)OC5CCC5)CC4)ccnc3[nH]2)cn1C` [Compound 139]: no more than 10 nM and no more than 100 nM.
As for `O=C(C1CC1)N1CCN(c2ccnc3[nH]c(-c4ccc(N5CCNC6(COC6)C5)cc4)cc23)CC1` [Compound 437], the IC50 in assay [1] is no more than 10 nM; on human ALK2 R206H, no more than 100 nM.
As to `Cc1nc(-c2[nH]c3nccc(N4CCN(C(=O)OCC(F)F)CC4)c3c2Cl)cn1C` [Compound 363], the IC50 in assay [1] was no more than 10 nM; at human ALK2 R206H, no more than 100 nM.
For `CC(C)N1CCC[C@H](c2ccc(-c3cc4c(N5CCN(C(=O)OC6COC6)CC5)ccnc4[nH]3)cc2)C1` [Compound 468] the same measures were no more than 10 nM and no more than 100 nM.
For `Cn1cnc(-c2cc3c(N4CCN(C(=O)OC5CCC5)CC4)ccnc3[nH]2)c1` [Compound 76] the same measures were no more than 10 nM and no more than 100 nM.
The matching figures for `Cc1nc(-c2cc3c(N4CCN(C(=O)OC5COC5)CC4)ccnc3[nH]2)cs1` [Compound 170]: no more than 10 nM and no more than 100 nM.
Consider `Cn1cnc(-c2[nH]c3nccc(N4CCN(C(=O)O[C@@H]5CCC5(F)F)CC4)c3c2C#N)c1` [Compound 368], for which the half-inhibitory concentration (IC50) is no more than 10 nM in assay [1] and no more than 100 nM on human ALK2 R206H.
Consider `Cn1cc(-c2cc3c(N4CCN(C(=O)OCCC#N)CC4)ccnc3[nH]2)cn1` [Compound 71], for which the figures for the IC50 (in assay [1]; at human ALK2 R206H) were no more than 10 nM and 100 to 500 nM, respectively.
Regarding `Cc1nc(-c2cc3c(N4CCN(C(=O)OC5COC5)CC4)ccnc3[nH]2)cn1C` [Compound 147], the IC50 is no more than 10 nM in assay [1] and no more than 100 nM on human ALK2 R206H.
For `Cc1ncsc1-c1cc2c(N3CCN(C(=O)OC4COC4)CC3)ccnc2[nH]1` [Compound 175], the IC50 in assay [1] was no more than 10 nM; on human ALK2 R206H it was 100 to 500 nM.
The matching figures for `O=C(OC1COC1)N1CCN(c2ccnc3[nH]c(-c4cn([C@@H]5CCOC5)cn4)cc23)CC1` [Compound 358]: no more than 10 nM and 100 to 500 nM.
For `COC1(c2ccc(-c3cc4c(N5CCN(C(=O)OC6COC6)CC5)ccnc4[nH]3)nc2)CCN(C[C@H](C)F)CC1` [Compound 478] the same measures were no more than 10 nM and no more than 100 nM.
For `CCOC(=O)N1CCN(c2ccnc3[nH]c(-c4cnn(C)c4C(F)F)cc23)CC1` [Compound 191], the figures for the IC50 (in assay [1]; on human ALK2 R206H) were no more than 10 nM and 100 to 500 nM, respectively.
For `Cn1cc(-c2cc3c(N4CCN(C(=O)[C@H]5C[C@@H]5C#N)CC4)ccnc3[nH]2)cn1` [Compound 54] the same measures were no more than 10 nM and 100 to 500 nM.
For `CC(C)(C#N)n1cc(-c2cc3c(N4CCN(C(=O)OC5COC5)CC4)ccnc3[nH]2)cn1` [Compound 351] the same measures were no more than 10 nM and 100 to 500 nM.
Turning to `Cc1nc(-c2cc3c(N4CCN(C(=O)OC5CC5)CC4)ccnc3[nH]2)cn1C` [Compound 75], the IC50 in assay [1] was no more than 10 nM; on human ALK2 R206H it was no more than 100 nM.
The matching figures for `Cn1cnc(-c2[nH]c3nccc(N4CCN(C(=O)O[C@H]5CCC5(F)F)CC4)c3c2C#N)c1` [Compound 369]: no more than 10 nM and no more than 100 nM.
For the molecule `Cc1nc(-c2cc3c(N4CCN(C(=O)OC5COC5)CC4)ccnc3[nH]2)sc1C` [Compound 250], the results for the IC50 (in assay [1]; on human ALK2 R206H) were no more than 10 nM and no more than 100 nM, respectively.
Consider `Cn1cc(-c2[nH]c3nccc(N4CCN(C(=O)OC5CC5)CC4)c3c2C#N)cn1` [Compound 129], for which the IC50 in assay [1] is no more than 10 nM; at human ALK2 R206H, no more than 100 nM.
For `O=C(C1CC1)N1CCN(c2ccnc3[nH]c(-c4ccc(C5CCNCC5F)cc4)cc23)CC1` (stereo not shown) [Compound 389], the IC50 in assay [1] is no more than 10 nM; at human ALK2 R206H it was no more than 100 nM.
The matching figures for `CCCOC(=O)N1CCN(c2ccnc3[nH]c(-c4cnn(C)c4)c(C#N)c23)CC1` [Compound 136]: no more than 10 nM and no more than 100 nM.
With `O=C(OC1COC1)N1CCN(c2ccnc3[nH]c(-c4ccc(C5=CCOCC5)cc4)cc23)CC1` [Compound 425], the values for the IC50 (in assay [1]; on human ALK2 R206H) were no more than 10 nM and no more than 100 nM, respectively.
For `O=C(C1CC1)N1CCN(c2ccnc3[nH]c(-c4ncco4)cc23)CC1` [Compound 1] the same measures were 10 to 50 nM and greater than 500 nM.
The matching figures for `N#Cc1c(-c2nc3c(s2)COCC3)[nH]c2nccc(N3CCN(C(=O)OC4CC4)CC3)c12` [Compound 395]: no more than 10 nM and no more than 100 nM.
The matching figures for `Cn1cc(-c2cc3c(N4CCN(C(=O)OC5COC5)CC4)ccnc3[nH]2)c(Cl)n1` [Compound 277]: no more than 10 nM and no more than 100 nM.
Consider `COc1cccc(-c2cc3c(N4CCN(C(=O)C5CC5)CC4)ccnc3[nH]2)c1` [Compound 59], for which the results for the IC50 (in assay [1]; on human ALK2 R206H) were no more than 10 nM and 100 to 500 nM, respectively.
The matching figures for `Cn1cc(-c2cc3c(N4CCN(C(=O)C5CC(F)C5)CC4)ccnc3[nH]2)cn1` (stereo not shown) [Compound 93]: no more than 10 nM and no more than 100 nM.
As to `N#Cc1ccc(-c2cc3c(N4CCN(C(=O)OC5COC5)CC4)ccnc3[nH]2)nc1` [Compound 192], the figures for the IC50 (in assay [1]; at human ALK2 R206H) were no more than 10 nM and 100 to 500 nM, respectively.
In the case of `O=C(C1CC1)N1CCN(c2ccnc3[nH]c(-c4ccc(C5(O)CCCC5)cc4)cc23)CC1` [Compound 329], the figures for the IC50 (in assay [1]; at human ALK2 R206H) were no more than 10 nM and no more than 100 nM, respectively.
The matching figures for `CC(C#N)Cn1cc(-c2cc3c(N4CCN(C(=O)OC5COC5)CC4)ccnc3[nH]2)cn1` (stereo not shown) [Compound 352]: no more than 10 nM and 100 to 500 nM.
In the case of `CC1(c2ccc(-c3cc4c(N5CCN(C(=O)C6CC6)CC5)ccnc4[nH]3)cc2)COC1` [Compound 271], the values for the IC50 (in assay [1]; on human ALK2 R206H) were no more than 10 nM and no more than 100 nM, respectively.
For `CCC(C)C(=O)N1CCN(c2ccnc3[nH]c(-c4cnn(C)c4)cc23)CC1` (stereo not shown) [Compound 33], the IC50 in assay [1] lay in the range of 10 to 50 nM; on human ALK2 R206H, 100 to 500 nM.
For `O=C(C1CC1)N1CCN(c2ccnc3[nH]c(-c4ccc(C5CCNCC5(F)F)cc4)cc23)CC1` (stereo not shown) [Compound 431], the results for the IC50 (in assay [1]; on human ALK2 R206H) were no more than 10 nM and no more than 100 nM, respectively.
As for `Cc1nc(-c2cc3c(N4CCN(C(=O)OC5CCC5)CC4)ccnc3[nH]2)cs1` [Compound 159], the concentration for half-maximal inhibition (IC50) in assay [1] is no more than 10 nM; at human ALK2 R206H it was no more than 100 nM.
For `CC(C)(C)c1ccc(-c2cc3c(N4CCN(C(=O)C5CC5)CC4)ccnc3[nH]2)cc1` [Compound 185] the same measures were no more than 10 nM and 100 to 500 nM.
For `Cn1cc(-c2cc3c(N4CCN(C(=O)O[C@H]5CCC5(F)F)CC4)ccnc3[nH]2)cn1` [Compound 268] the same measures were no more than 10 nM and no more than 100 nM.
The matching figures for `CCOC(=O)N1CCN(c2ccnc3[nH]c(-c4nc(C)c(C)s4)cc23)CC1` [Compound 114]: no more than 10 nM and no more than 100 nM.
On to `CN1CCN(c2ccc(-c3cc4c(N5CCN(C(=O)C6CC6)CC5)ccnc4[nH]3)cn2)CC1` [Compound 382], for which the figures for the IC50 (in assay [1]; at human ALK2 R206H) were no more than 10 nM and no more than 100 nM, respectively.
`O=C(OC1CC1)N1CCN(c2ccnc3[nH]c(-c4nc5c(s4)COCC5)cc23)CC1` [Compound 311]: the 50% inhibitory concentration (IC50) was no more than 10 nM in assay [1] and no more than 100 nM at human ALK2 R206H.
As for `CCOC(=O)N1CCN(c2ccnc3[nH]c(-c4cnn(C)c4)c(Cl)c23)CC1` [Compound 121], the 50% inhibitory concentration (IC50) in assay [1] is no more than 10 nM; on human ALK2 R206H, no more than 100 nM.
For `CCN1CCN(c2ccc(-c3cc4c(N5CCN(C(=O)C6CC6)CC5)ccnc4[nH]3)c(OC(F)F)c2)CC1` [Compound 475], the IC50 in assay [1] was no more than 10 nM; on human ALK2 R206H, no more than 100 nM.
For `Cc1cc(-c2cc3c(N4CCN(C(=O)OC5COC5)CC4)ccnc3[nH]2)on1` [Compound 104] the same measures were no more than 10 nM and 100 to 500 nM.
For `Cc1cc(-c2cc3c(N4CCN(C(=O)OC5COC5)CC4)ccnc3[nH]2)cs1` [Compound 169] the same measures were no more than 10 nM and no more than 100 nM.
The matching figures for `CCOC(=O)N1CCN(c2ccnc3[nH]c(-c4cccc(C)n4)cc23)CC1` [Compound 26]: no more than 10 nM and 100 to 500 nM.
